Structures can show the parent of a compound that is named as a salt. The source made the active and inactive calls. Rule as the data show it, for most assays here: active = IC50 of 5 µM or less and inactive = more.
Columns and labels:
[1] = cytotoxicity toward HT-29 cells – cell-based, CellTiter-Glo luminescence, IC50, dose response (AID 1117330); format: functional
[2] = cytotoxicity toward HCT116 cells – cell-based, CellTiter-Glo luminescence, IC50, dose response (AID 1117332); format: functional; details: HCT-116
[3] = CellTiter-Glo luminescence survival assay, SW480 colon tumor line, concentration-response curve, half-maximal inhibitory concentration (AID 1117338); format: functional
[4] = Reduced DLD-1 viability, concentration-response, CellTiter-Glo luminescence (AID 1117352); format: functional
[5] = cytotoxicity toward Colo320 cells – cell-based, CellTiter-Glo luminescence, IC50, dose response (AID 1117334); format: functional; details: COLO 320
[6] = biological target: Aryl hydrocarbon receptor (Homo sapiens, UniProt P35869); details: Potency;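 also: confirmatory quantitative high-throughput screen measuring activation of the AhR signaling pathway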
[7] = HCT116 cell viability decrease, GSK3B pretreatment – CellTiter-Glo, IC50, dose response (AID 1117339); format: functional; details: HCT-116
[8] = RKO cell viability reduction, dose response, CellTiter-Glo luminescence (AID 1117322); format: functional
[9] = SNU-C1 cell viability reduction, dose response, CellTiter-Glo luminescence (AID 1117323); format: functional, cell-based
[10] = IC50 of insulin release inhibition, rat insulinoma INS-1E line, 5 mM glucose, cell-based (AID 1117331); format: functional
[11] = biological target: T1, RNA-binding protein pos-1 (Caenorhabditis elegans, UniProt G5EF15); assay: disruptors of C. elegans POS-1 RNA interaction – biochemical, fluorescence polarization, dose response (AID 1964);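 also: purified POS-1 fused to maltose binding protein made in E. coli; potency of compounds blocking POS-1 binding to fluorescent RNA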
T1 sequence (G5EF15 whole entry): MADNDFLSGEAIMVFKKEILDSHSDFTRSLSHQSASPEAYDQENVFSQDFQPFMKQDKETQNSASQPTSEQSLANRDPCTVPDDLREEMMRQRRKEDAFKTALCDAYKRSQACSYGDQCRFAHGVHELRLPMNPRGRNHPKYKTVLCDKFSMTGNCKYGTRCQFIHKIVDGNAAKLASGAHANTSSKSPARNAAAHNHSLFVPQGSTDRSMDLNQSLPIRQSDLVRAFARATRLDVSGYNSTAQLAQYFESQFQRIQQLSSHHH

[12] = biological target: Protein Tat (Human immunodeficiency virus type 1 group M subtype B (isolate HXB2)(HIV-1), UniProt P04608); format: functional;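 also: tat binding to TAR RNA read out by fluorescence polarization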
[13] = biological target: T2, Mannose-6-phosphate isomerase (Homo sapiens, UniProt P34949); assay: MPI enzyme activity inhibition – biochemical, fluorescence intensity, coupled assay, primary screen (AID 1209)
T2 sequence (P34949 whole entry): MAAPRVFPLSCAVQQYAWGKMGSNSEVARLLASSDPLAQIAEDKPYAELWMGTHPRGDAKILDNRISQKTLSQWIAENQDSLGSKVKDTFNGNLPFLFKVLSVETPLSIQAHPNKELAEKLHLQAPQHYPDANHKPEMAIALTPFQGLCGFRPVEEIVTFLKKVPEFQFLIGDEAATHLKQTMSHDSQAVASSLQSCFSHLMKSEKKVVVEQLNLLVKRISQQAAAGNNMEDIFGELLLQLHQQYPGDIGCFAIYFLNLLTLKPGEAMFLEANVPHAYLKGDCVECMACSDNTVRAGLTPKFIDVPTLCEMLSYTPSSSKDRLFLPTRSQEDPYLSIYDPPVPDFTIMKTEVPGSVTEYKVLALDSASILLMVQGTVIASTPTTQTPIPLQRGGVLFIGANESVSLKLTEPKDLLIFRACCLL

[14] = biological target: T3, Zinc finger protein mex-5 (Caenorhabditis elegans, UniProt Q9XUB2); assay: potency of MEX-5 RNA-binding blockers – biochemical, C. elegans, fluorescence polarization, dose response (AID 1960)
T3 sequence (Q9XUB2 whole entry): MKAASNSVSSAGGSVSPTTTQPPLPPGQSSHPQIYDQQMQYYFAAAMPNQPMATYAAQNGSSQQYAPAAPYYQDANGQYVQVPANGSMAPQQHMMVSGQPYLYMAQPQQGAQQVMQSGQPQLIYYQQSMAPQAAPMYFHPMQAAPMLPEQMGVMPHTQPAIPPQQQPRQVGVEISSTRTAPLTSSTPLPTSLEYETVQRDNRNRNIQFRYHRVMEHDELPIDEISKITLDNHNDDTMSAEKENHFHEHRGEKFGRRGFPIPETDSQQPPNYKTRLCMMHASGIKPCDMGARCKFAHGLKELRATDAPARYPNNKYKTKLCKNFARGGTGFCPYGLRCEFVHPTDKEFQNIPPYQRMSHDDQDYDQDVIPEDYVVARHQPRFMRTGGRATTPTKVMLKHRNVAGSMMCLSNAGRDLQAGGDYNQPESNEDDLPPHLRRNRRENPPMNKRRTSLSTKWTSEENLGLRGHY

Chain of Protein Tat (P04608 whole entry): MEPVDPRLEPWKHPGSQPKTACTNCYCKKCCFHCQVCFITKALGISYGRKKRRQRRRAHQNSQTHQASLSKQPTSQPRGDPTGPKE
Chain of Aryl hydrocarbon receptor (P35869 whole entry): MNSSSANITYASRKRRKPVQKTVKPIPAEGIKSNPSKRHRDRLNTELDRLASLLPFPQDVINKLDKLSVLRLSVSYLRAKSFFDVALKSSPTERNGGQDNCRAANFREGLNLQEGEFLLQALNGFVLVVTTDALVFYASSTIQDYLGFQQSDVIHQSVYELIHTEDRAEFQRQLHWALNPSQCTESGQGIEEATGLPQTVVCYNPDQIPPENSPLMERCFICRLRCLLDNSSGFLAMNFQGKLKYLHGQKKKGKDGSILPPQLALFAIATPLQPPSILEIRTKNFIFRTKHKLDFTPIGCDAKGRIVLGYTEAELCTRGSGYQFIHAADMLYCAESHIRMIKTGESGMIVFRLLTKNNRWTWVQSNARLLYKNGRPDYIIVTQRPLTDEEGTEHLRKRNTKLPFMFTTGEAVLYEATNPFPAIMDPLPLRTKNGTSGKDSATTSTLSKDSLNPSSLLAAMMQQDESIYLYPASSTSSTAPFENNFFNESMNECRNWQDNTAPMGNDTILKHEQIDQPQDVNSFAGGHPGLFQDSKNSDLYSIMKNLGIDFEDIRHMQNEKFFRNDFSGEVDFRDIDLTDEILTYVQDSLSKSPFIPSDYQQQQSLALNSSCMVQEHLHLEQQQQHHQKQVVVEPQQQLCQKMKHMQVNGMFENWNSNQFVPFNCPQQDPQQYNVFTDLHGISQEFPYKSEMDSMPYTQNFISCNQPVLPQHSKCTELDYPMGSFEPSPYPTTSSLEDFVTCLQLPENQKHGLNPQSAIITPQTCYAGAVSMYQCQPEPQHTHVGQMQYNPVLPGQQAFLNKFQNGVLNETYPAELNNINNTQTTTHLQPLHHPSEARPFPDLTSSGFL

SMILES | IC50 [1] | IC50 [2] | IC50 [3] | IC50 [4] | IC50 [5] | AC50 [6] | IC50 [7] | IC50 [8] | IC50 [9] | IC50 [10] | EC50 [11] | IC50 [12] | IC50 [13] | EC50 [14]
CN(C)c1ccc(C(=C2C=CC(=[N+](C)C)C=C2)c2ccccc2)cc1 | 0.00982 µM (active) | 0.0179 µM (active) | 0.00922 µM (active) | 0.0218 µM (active) | 0.161 µM (active) | 7.94 µM (inconclusive) | 0.00983 µM (active) | 0.118 µM (active) | 0.0354 µM (active) |  |  |  |  | 
CN(C)CCCOc1nn(Cc2ccccc2)c2ccccc12 [BENZYDAMINE HYDROCHLORIDE] |  |  |  |  |  |  |  |  |  | 21.4 µM (inactive) |  |  |  | 
Cc1cc(O)c(Oc2cc(C)cc(O)c2O)c(O)c1 |  |  |  |  |  |  |  |  |  |  | 43.9 µM (active) | > 100 µM (active) | 39.5 µM (active) | 12.9 µM (active)
NC1=NCC2c3ccccc3Cc3ccccc3N12 (configuration not stated) [EPINASTINE HYDROCHLORIDE] | > 20 µM (inactive) | > 20 µM (inactive) | > 20 µM (inactive) | > 20 µM (inactive) | > 20 µM (inactive) |  | > 20 µM (inactive) | > 20 µM (inactive) | > 20 µM (inactive) |  |  |  |  | 
